Key:
Assay in all cases: Bliss excess, mean over the matrix (fraction); higher = more synergy
[1] = system: DMS-114 (Small Cell Lung Carcinoma)
Method in brief: (§1)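 Cell lines grown in DMEM/F12 or RPMI with 10% FBS were plated in 1536-well plates and held 24 hours at 37°C, 5% CO2 before 72 hours of exposure to two-drug dose matrices, with DMSO typically at 0.2%. CellTiter-Glo 2.0 luminescence gave viability, which was converted to inhibition. Vehicle wells were set to 0 and blank wells to 1. Combination Emax is the second-highest inhibition in the matrix, and Bliss excess is the observed combination effect minus the expected EA + EB − EA·EB, where EA and EB are the single-agent effects.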

[2] = system: VMRC-RCZ (Kidney Carcinoma)
Method in brief: as §1

[3] = system: MN-60 (B-Lymphoblastic Leukemia)
Method in brief: as §1

[4] = system: SNU-398 (Hepatocellular Carcinoma)
Method in brief: as §1

M059J (Glioblastoma) = system: M059J (Glioblastoma)
Method in brief: as §1

[5] = system: RPMI-8226 (Plasma Cell Myeloma)
Method in brief: as §1

[6] = system: SK-GT-2 (Gastric Carcinoma)
Method in brief: as §1

[7] = system: 8505C (Thyroid Gland Carcinoma)
Method in brief: as §1

[8] = system: NCI-H526 (Small Cell Lung Carcinoma)
Method in brief: as §1

[9] = system: KMS-12-BM (Plasma Cell Myeloma)
Method in brief: as §1

[10] = system: COR-L279 (Small Cell Lung Carcinoma)
Method in brief: as §1

[11] = system: ST486 (Burkitt's Lymphoma)
Method in brief: as §1

[12] = system: KP-3 (Pancreatic Carcinoma)
Method in brief: as §1

[13] = system: MOLM-13 (Acute Myeloid Leukemia)
Method in brief: as §1

[14] = system: DAN-G (Pancreatic Carcinoma)
Method in brief: as §1

[15] = system: NCCIT (Other Solid Carcinomas)
Method in brief: as §1

[16] = system: SUP-B15 (B-Lymphoblastic Leukemia)
Method in brief: as §1

[17] = system: CW-2 (Colorectal Carcinoma)
Method in brief: as §1

[18] = system: HCC1419 (Breast Carcinoma)
Method in brief: as §1

[19] = system: KYSE-270 (Esophageal Squamous Cell Carcinoma)
Method in brief: as §1

Row | SMILES | Bliss excess [1] | Bliss excess [2] | Bliss excess [3] | Bliss excess [4] | Bliss excess (M059J (Glioblastoma)) | Bliss excess [5] | Bliss excess [6] | Bliss excess [7] | Bliss excess [8] | Bliss excess [9] | Bliss excess [10] | Bliss excess [11] | Bliss excess [12] | Bliss excess [13] | Bliss excess [14] | Bliss excess [15] | Bliss excess [16] | Bliss excess [17] | Bliss excess [18] | Bliss excess [19]
1 | COc1nnc2ccc(N3CCC(c4ccc(OCCN5CCN(C)C(=O)[C@H]5C)cc4)CC3)nn12 [AZD5153] + CCN(CCO)CCCOc1ccc2c(Nc3cc(CC(=O)Nc4cccc(F)c4)[nH]n3)ncnc2c1 [AZD2811] (first compound max 1 µM, 7x7, partner max 1 µM) | -0.0127 | -0.0259 | -0.0224 | -0.0495 | -0.0225 | -0.0116 | -0.0314 | 0.03 | -0.0332 | 0.0641 | -0.0201 | -0.0647 | -0.0359 | 0.0176 | -0.0611 | -0.0288 | -0.028 | -0.0525 | -0.0414 | -0.054
2 | Cc1c2c(nn1C)CSCc1cc(n(C)n1)CSc1cc(c3ccccc3c1)OCCCc1c(C(=O)O)n(C)c3c-2c(Cl)ccc13 [AZD5991] + Cc1cc2ncnn2cc1Nc1ncc2c(n1)n(C1CCOCC1)c(=O)n2C [AZD7648] (first compound max 1 µM, 7x7, partner max 10 µM) | 0.0346 | -0.0405 | 0.0011 | -0.0125 | -0.0726 | -0.0436 | 0.0164 | -0.0125 | -0.0042 | -0.0033 | 0.0671 | -0.053 | -0.0462 | -0.0165 | -0.0402 | -0.0494 | 0.0099 | 0.0242 | -0.0196 | -0.0342
3 | CN(CCO)CC[C@H](CSc1ccccc1)Nc1ccc(S(=O)(=O)NC(=O)c2ccc(N3CCC([C@@H](O)c4ccccc4-c4ccc(Cl)cc4)CC3)cc2)cc1S(=O)(=O)C(F)(F)F [AZD4320] + C1CN(CCC1(C(=O)N[C@@H](CCO)C2=CC=C(C=C2)Cl)N)C3=NC=NC4=C3C=CN4 [Capivasertib] (first compound max 1 µM, 7x7, partner max 3 µM) | -0.0066 | -0.0429 | -0.0157 | -0.032 | -0.0113 | 0.0027 | -0.0158 | -0.155 | -0.0075 | 0.0181 | 0.0721 | -0.0345 | -0.0438 | -0.0169 | -0.0354 | 0.0224 | -0.0203 | -0.0284 | 0.0421 | -0.0441
4 | CC1(C)CCC(CN2CCN(c3ccc(C(=O)NS(=O)(=O)c4ccc(NCC5CCOCC5)c([N+](=O)[O-])c4)c(Oc4cnc5[nH]ccc5c4)c3)CC2)=C(c2ccc(Cl)cc2)C1 [Venetoclax] + C[C@@H]1COCCN1C2=NC(=NC(=C2)C3(CC3)[S@](=N)(=O)C)C4=C5C=CNC5=NC=C4 [AZD6738] (first compound max 1 µM, 7x7, partner max 10 µM) | -0.0338 | -0.0262 | 0.0434 | -0.0662 | -0.0258 | 0.0142 | 0.0388 | -0.0219 | 0.0144 | -0.012 | 0.0287 | -0.0369 | -0.0227 | 0.0068 | -0.0536 | -0.0355 | 0.0383 | 0.0258 | -0.0479 | -0.0188
5 | Cn1cnc2c(F)c(Nc3ccc(Br)cc3Cl)c(C(=O)NOCCO)cc21 [Selumetinib] + C=CCn1c(=O)c2cnc(Nc3ccc(N4CCN(C)CC4)cc3)nc2n1-c1cccc(C(C)(C)O)n1 [AZD1775] (first compound max 10 µM, partner max 1 µM) | -0.0351 | -0.066 | -0.0154 | 0.0182 | -0.0499 | 0.0433 | -0.0872 | 0.0279 | -0.052 | -0.0355 | 0.0006 | 0.0165 | -0.0312 | -0.0414 | 0.014 | -0.0826 | 0.0934 | -0.005 | -0.0697 | -0.0654
6 | CC1(C)CCC(CN2CCN(c3ccc(C(=O)NS(=O)(=O)c4ccc(NCC5CCOCC5)c([N+](=O)[O-])c4)c(Oc4cnc5[nH]ccc5c4)c3)CC2)=C(c2ccc(Cl)cc2)C1 [Venetoclax] + C=CCn1c(=O)c2cnc(Nc3ccc(N4CCN(C)CC4)cc3)nc2n1-c1cccc(C(C)(C)O)n1 [AZD1775] (first compound max 1 µM, partner max 1 µM) | 0.0056 | 0.0418 | -0.0285 | 0.0035 | -0.0663 | 0.0368 | 0.0014 | -0.0083 | -0.0183 | 0.0356 | -0.0349 | 0.108 | -0.0085 | 0.0122 | -0.0114 | 0.0522 | 0.0509 | -0.0091 | -0.0261 | 0.0742
7 | Cn1cnc2c(F)c(Nc3ccc(Br)cc3Cl)c(C(=O)NOCCO)cc21 [Selumetinib] + C[C@@H]1COCCN1C2=NC(=NC(=C2)C3(CC3)[S@](=N)(=O)C)C4=C5C=CNC5=NC=C4 [AZD6738] (first compound max 10 µM, 7x7, partner max 10 µM) | -0.0395 | -0.0594 | -0.0319 | 0.0082 | -0.056 | 0.0032 | -0.0229 | 0.111 | -0.0544 | 0.0112 | -0.0377 | -0.0592 | -0.0459 | 0.0491 | 0.0105 | -0.0802 | 0.142 | 0.009 | -0.0522 | -0.0302
8 | CC1(C)CCC(CN2CCN(c3ccc(C(=O)NS(=O)(=O)c4ccc(NCC5CCOCC5)c([N+](=O)[O-])c4)c(Oc4cnc5[nH]ccc5c4)c3)CC2)=C(c2ccc(Cl)cc2)C1 [Venetoclax] + C[C@@H](Nc1cc(F)cc(F)c1)c1cc(C(=O)N(C)C)cc2c(=O)cc(N3CCOCC3)oc12 [AZD8186] (first compound max 1 µM, 7x7, partner max 3 µM) | -0.0297 | -0.0215 | 0.044 | -0.0201 | -0.0141 | 0.037 | -0.0271 | -0.024 | 0.033 | 0.0494 | 0.0138 | -0.0686 | -0.0376 | 0.0046 | -0.0346 | -0.0336 | -0.0587 | -0.007 | -0.0316 | -0.0186
9 | Cc1c2c(nn1C)CSCc1cc(n(C)n1)CSc1cc(c3ccccc3c1)OCCCc1c(C(=O)O)n(C)c3c-2c(Cl)ccc13 [AZD5991] + Cn1cnc2c(F)c(Nc3ccc(Br)cc3Cl)c(C(=O)NOCCO)cc21 [Selumetinib] (first compound max 1 µM, 7x7, partner max 3 µM) | -0.0317 | -0.0777 | -0.0125 | 0.0354 | -0.102 | 0.0045 | 0.016 | 0.0319 | 0.0123 | -0.0124 | -0.0172 | 0.07 | -0.0378 | 0.0409 | 0.0588 | 0.0003 | 0.0806 | 0.0226 | 0.0366 | 0.0409
10 | CN(CCO)CC[C@H](CSc1ccccc1)Nc1ccc(S(=O)(=O)NC(=O)c2ccc(N3CCC([C@@H](O)c4ccccc4-c4ccc(Cl)cc4)CC3)cc2)cc1S(=O)(=O)C(F)(F)F [AZD4320] + Cc1cc2ncnn2cc1Nc1ncc2c(n1)n(C1CCOCC1)c(=O)n2C [AZD7648] (first compound max 1 µM, 7x7, partner max 10 µM) | -0.0514 | -0.058 | -0.0177 | -0.0291 | -0.0258 | 0.0536 | -0.0034 | -0.0315 | -0.0069 | 0.0317 | -0.0057 | -0.0066 | -0.0471 | 0.0157 | -0.0484 | -0.059 | -0.0072 | -0.006 | -0.133 | -0.0197
11 | COc1cccc(OCCCN)c1-c1cc(Nc2cnc(C#N)cn2)n[nH]1 [Prexasertib] + CCc1c2c(nc3ccc(O)cc13)-c1cc3c(c(=O)n1C2)COC(=O)[C@]3(O)CC [SN-38] (first compound max 1 µM, 7x7, partner max 0.3 µM) | 0.0663 | 0.0578 | -0.0452 | 0.0441 | -0.0373 | 0.0686 | 0.034 | -0.0559 | -0.0164 | 0.0381 | -0.0221 | 0.0412 | 0.0321 | 0.0073 | 0.0239 | 0.0269 | -0.0197 | -0.0035 | -0.0098 | 0.0028
12 | COc1nnc2ccc(N3CCC(c4ccc(OCCN5CCN(C)C(=O)[C@H]5C)cc4)CC3)nn12 [AZD5153] + Cc1c2c(nn1C)CSCc1cc(n(C)n1)CSc1cc(c3ccccc3c1)OCCCc1c(C(=O)O)n(C)c3c-2c(Cl)ccc13 [AZD5991] (first compound max 1 µM, 7x7, partner max 1 µM) | 0.029 | -0.022 | -0.0765 | -0.0431 | -0.0072 | -0.0253 | 0.0224 | -0.0393 | 0.03 | -0.0116 | 0.08 | -0.0275 | -0.0446 | -0.0238 | -0.0163 | -0.0196 | 0.0356 | -0.0629 | -0.0411 | 0.0085
13 | COc1nnc2ccc(N3CCC(c4ccc(OCCN5CCN(C)C(=O)[C@H]5C)cc4)CC3)nn12 [AZD5153] + C[C@@H]1COCCN1C2=NC(=NC(=C2)C3(CC3)[S@](=N)(=O)C)C4=C5C=CNC5=NC=C4 [AZD6738] (first compound max 1 µM, 7x7, partner max 10 µM) | 0.0184 | 0.0926 | -0.0638 | 0.0758 | -0.0647 | -0.0505 | 0.0773 | 0.0751 | -0.044 | -0.0167 | -0.0233 | -0.0692 | 0.0527 | -0.0068 | 0.0374 | -0.0702 | -0.012 | 0.0277 | -0.0517 | -0.0544
14 | CC1(C)CCC(CN2CCN(c3ccc(C(=O)NS(=O)(=O)c4ccc(NCC5CCOCC5)c([N+](=O)[O-])c4)c(Oc4cnc5[nH]ccc5c4)c3)CC2)=C(c2ccc(Cl)cc2)C1 [Venetoclax] + CCN(CCO)CCCOc1ccc2c(Nc3cc(CC(=O)Nc4cccc(F)c4)[nH]n3)ncnc2c1 [AZD2811] (first compound max 1 µM, 7x7, partner max 1 µM) | -0.0334 | -0.0391 | -0.0927 | -0.0599 | -0.0687 | 0.0361 | 0.0136 | -0.0133 | 0.138 | 0.0773 | 0.0501 | -0.0299 | -0.0316 | 0.0626 | -0.0106 | 0.0139 | 0.0132 | 0.0269 | -0.0448 | -0.0072
